Data: patent US11072624B2, “Synthesis of nucleoside 5′-triphosphates and their derivatives” (priority 2010, dated 2021)

Target: T1, Klenow fragment exo(−), Kf- (Escherichia coli, UniProt P00582, D355A/E357A)
T1 construct: into DNA by Klenow fragment exo(−), Kf-
Experiment: Primer extension reaction of chemically synthesized dNTPs into DNA by Klenow polymerase
Assay type: biochemical
Details: single test dNTP plus the three other standard dNTPs (lanes 4, 6, 8, 10); 0.1 mM dNTPs, 37° C., 1 h, 19% PAGE
Method: Primer, P was end labeled using polynucleotide kinase and [γ-^32P] ATP. Polymerization reactions were performed with 3.5 μM primer and 5 μM template and equimolar ratios of all dNTPs (0.1 mM) and incubated with 0.05 […] at 37° C. for 1 h. Reaction was analyzed by 19% polyacrylamide gel electrophoresis. Lane 1: primer, P and all dNTPs but no Kf-; lane 2: P plus template, T and all dNTPs (Epicentre, Inc.) with Kf-; lane 3: P/T and all dNTPs except dATP with Kf-; lane 4: P/T and test dATP, dCTP, dGTP, and TTP with Kf-; lane 5: P/T and all dNTPs except dCTP with Kf-; lane 6: P/T and dATP, test dCTP, dGTP and TTP with Kf-; lane 7: P/T and all dNTPs except dGTP with Kf-; lane 8: P/T and dATP, dCTP, test dGTP and TTP with Kf-; lane 9: P/T and all dNTPs except TTP with Kf-; lane 10: P/T and dATP, dCTP, dGTP and test TTP with Kf-; lane 11: P/T and all test dNTPs with Kf-; lane 12: primer, P.
For the polymerase extension reaction, the primer (SEQ ID NO: 1; P: 5′-d-GCGTAATACGACTCACTATAG-3′) was radiolabeled with [γ-^32P] ATP at the 5′-position and incubated with the template (SEQ ID NO: 2; 3′-d-[…]-5′) to allow examination of a test nucleotide (dATP, dCTP, dGTP or TTP), see FIG. 3. The polymerase reaction was conducted in the presence of the Klenow polymerase (0.05 U/μL). […] More convincingly, in a reaction containing each of the test triphosphates (lane 11), full-length product (SEQ ID NO: 3) similar to the standard polymerization reaction (lane 2) was observed.

T1 sequence (P00582 324-928 D355A/E357A): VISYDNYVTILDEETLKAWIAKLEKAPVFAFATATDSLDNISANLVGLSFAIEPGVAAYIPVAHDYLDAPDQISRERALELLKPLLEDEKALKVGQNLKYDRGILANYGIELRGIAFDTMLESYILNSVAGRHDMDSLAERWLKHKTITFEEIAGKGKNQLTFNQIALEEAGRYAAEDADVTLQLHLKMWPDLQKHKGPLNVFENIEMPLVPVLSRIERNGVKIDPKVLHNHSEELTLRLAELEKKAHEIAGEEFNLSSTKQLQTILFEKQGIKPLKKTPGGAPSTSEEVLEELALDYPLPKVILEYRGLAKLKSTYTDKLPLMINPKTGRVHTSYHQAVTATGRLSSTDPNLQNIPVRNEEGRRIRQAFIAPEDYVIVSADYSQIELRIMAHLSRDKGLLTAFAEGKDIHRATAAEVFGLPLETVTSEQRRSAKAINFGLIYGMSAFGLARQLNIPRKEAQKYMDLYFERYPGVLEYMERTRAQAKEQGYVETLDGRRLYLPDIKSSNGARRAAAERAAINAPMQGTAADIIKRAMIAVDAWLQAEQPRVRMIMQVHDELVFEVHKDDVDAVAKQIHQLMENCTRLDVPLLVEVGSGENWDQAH

SMILES	primer extension to the expected full-length (test dNTP as substrate for the Klenow polymerase)
Cc1cn([C@H]2C[C@H](O)[C@@H](COP(=O)(O)OP(=O)(O)OP(=O)(O)O)O2)c(=O)[nH]c1=O [TTP]	efficiently extended the primer
Nc1ncnc2c1ncn2[C@H]1C[C@H](O)[C@@H](COP(=O)(O)OP(=O)(O)OP(=O)(O)O)O1 [dATP]	efficiently extended the primer
Nc1ccn([C@H]2C[C@H](O)[C@@H](COP(=O)(O)OP(=O)(O)OP(=O)(O)O)O2)c(=O)n1 [dCTP]	efficiently extended the primer
Nc1nc2c(ncn2[C@H]2C[C@H](O)[C@@H](COP(=O)(O)OP(=O)(O)OP(=O)(O)O)O2)c(=O)[nH]1 [dGTP]	efficiently extended the primer
